One assay concerns the target TvVip (Trichoderma virens, UniProt G9MQB8). The assay is described as follows: X-ray crystal structure. Format: binding. The following applies: 3.2 Å; complex with SAM; active site.
A further assay has as its target MlVip (Methanofollis liminatans, UniProt J0S9F5). The assay is described as follows: ddhNTP product by LC-MS. Format: biochemical. The following applies: SAM, dithionite; labelled compound (deuCTP).
For assay [1], the target named is T1, RnVip (Rattus norvegicus, UniProt O70600, K317A).
T1 sequence (O70600 1-360 K317A): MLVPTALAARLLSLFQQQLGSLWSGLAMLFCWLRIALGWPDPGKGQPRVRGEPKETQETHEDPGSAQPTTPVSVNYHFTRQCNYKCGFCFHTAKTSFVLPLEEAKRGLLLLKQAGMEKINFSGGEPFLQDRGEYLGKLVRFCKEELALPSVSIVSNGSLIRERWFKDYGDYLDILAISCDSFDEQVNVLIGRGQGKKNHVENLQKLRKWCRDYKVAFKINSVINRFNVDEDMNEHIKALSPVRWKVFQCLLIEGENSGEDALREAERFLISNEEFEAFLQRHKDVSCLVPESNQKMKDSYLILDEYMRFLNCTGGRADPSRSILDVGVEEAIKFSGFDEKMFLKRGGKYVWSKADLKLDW
The assay is described as follows: ddhCTP formation. The following applies: SAM, dithionite. Format: biochemical.

Assay [2] deals with T2, RnVip (Rattus norvegicus, UniProt O70600, H77A).
T2 sequence (O70600 1-360 H77A): T1 sequence (O70600 1-360 K317A) with H77A, A317K
The assay is described as follows: ddhCTP formation. Format: biochemical. The following applies: SAM, dithionite.

The next assay has as its target NvVip (Nematostella vectensis, UniProt A7RNF3). The assay is described as follows: X-ray crystal structure. Format: binding. The following applies: 1.42 Å, [4Fe-4S], anaerobic, active site.

Changes are numbered by the printed parent chain.

Results on 3 compounds are retold here after publication PMC8672371 (Biochemistry, 2021).

Regarding `O=c1ccn([C@@H]2O[C@H](COP(=O)(O)OP(=O)(O)OP(=O)(O)O)[C@@H](O)[C@H]2O)c(=O)[nH]1` [UTP], at TvVip, the X-ray crystal structure entry is “Crystals of TvVip bound to SAM and UTP exhibited diffraction”.
On to `Nc1ccn([C@@H]2O[C@H](COP(=O)(O)OP(=O)(O)OP(=O)(O)O)[C@@H](O)[C@H]2O)c(=O)n1` [CTP], for which, on MlVip, the “ddhNTP product by LC-MS; deu5'-dA formation” value is reported as “only deuCTP was converted to the respective ddhNTP product by MlVip”. The ddhCTP formation result is “we generated a lysine to alanine variant in RnVip (K317A” on RnVip [1]; “We generated the RnVip variant H77A and the MmVip variant H79A” on RnVip [2]. At NvVip (complex with SAM), the X-ray crystal structure result is given as “omit maps show strong density for CTP in the catalytic site”.
Consider `C[S+](CC[C@H](N)C(=O)O)C[C@H]1O[C@@H](n2cnc3c(N)ncnc32)[C@H](O)[C@@H]1O` (stereo partly drawn) [SAM], for which the X-ray crystal structure result on NvVip (complex with CTP) is “The asymmetric unit of NvVip contains one protein chain, a 4Fe-4S cluster, CTP, and SAM”.
